Measured values from patent US20150105252A1, “SUBSTITUTED PYRAZOLES AS HERBICIDES” (E I DU PONT DE NEMOURS AND COMPANY, priority 2013, published 2015).

Legend:
pigweed [1] = assay: Test C postemergence; format: in vivo, Amaranthus retroflexus; conditions: for Pigweed plant response rating: scale 0 to 100
Outline: (§1)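 Postemergence values come from plants sprayed at the 1- to 4-leaf stage (2–18 cm) in peat moss–vermiculite medium; preemergence values from seeds treated in a loam–sand blend. Both evaluated visually against controls after 13–15 greenhouse days, scale 0–100.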

wheat = assay: Test C postemergence; format: in vivo, Triticum aestivum
Outline: as §1

crabgrass, large = assay: Test A postemergence; format: in vivo, Digitaria sanguinalis
Outline: (§2)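 Scoring was visual, on a scale where 100 means complete control and 0 means no effect, comparing treated with untreated plants around 10 days post-application. Compounds in surfactant-containing non-phytotoxic solvent were sprayed onto soil preemergence or onto one- to two-leaf seedlings (2–10 cm) postemergence.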

barnyardgrass = assay: Test C postemergence; format: in vivo, Echinochloa crus-galli; conditions: for Barnyardgrass plant response rating: scale 0 to 100
Text: Seeds of plant species selected from blackgrass (Alopecurus myosuroides), ryegrass, Italian (Italian ryegrass, Lolium multiflorum), wheat (winter wheat, Triticum aestivum), galium (catchweed bedstraw, Galium aparine), corn (Zea mays), crabgrass, large (large crabgrass, Digitaria sanguinalis), foxtail, giant (giant foxtail, Setaria faberii), johnsongrass (Sorghum halepense), lambsquarters (Chenopodium album), morningglory (Ipomoea coccinea), nutsedge, yellow (yellow nutsedge, Cyperus esculentus), pigweed (redroot pigweed, Amaranthus retroflexus), ragweed (common ragweed, Ambrosia elation), soybean (Glycine max), barnyardgrass (Echinochloa crus-galli), oilseed rape (Brassica napus), waterhemp (common waterhemp, Amaranthus rudis), oat, wild (wild oat, Avena fatua), kochia (Kochia scoparia), Surinam grass (Brachiaria decumbens), foxtail, green (green foxtail, Setaria viridis), goosegrass (Eleusine indica), bromegrass, downy (downy bromegrass, Bromus tectorum), nightshade (eastern black nightshade, Solanum ptycanthum), cocklebur (common cocklebur, Xanthium strumarium), cupgrass, woolly (woolly cupgrass, Eriochloa villosa), bermudagrass (Cynodon dactylon), sunflower, (common oilseed sunflower, Helianthus annuus), Russian thistle (Salsola kali), and velvetleaf (Abutilon theophrasti) were planted into a blend of loam soil and sand and treated preemergence with test chemicals formulated in a non-phytotoxic solvent mixture which included a surfactant.
At the same time, plants selected from these crop and weed species and also chickweed (common chickweed, Stellaria media), canarygrass (littleseed canarygrass, Phalaris minor), and deadnettle (henbit deadnettle, Lamium amplexicaule), were planted in pots containing Redi-Earth® planting medium (Scotts Company, 14111 Scottslawn Road, Marysville, Ohio 43041) comprising spaghnum peat moss, vermiculite, wetting agent and starter nutrients and treated with postemergence applications of test chemicals formulated in the same manner. Plants ranged in height from 2 to 18 cm (1- to 4-leaf stage) for postemergence treatments. Treated plants and controls were maintained in a greenhouse for 13 to 15 days, after which time all species were compared to controls and visually evaluated. Plant response ratings, summarized in Table C, are based on a scale of 0 to 100 where 0 is no effect and 100 is complete control. A dash (-) response means no test result.

corn = assay: Test A postemergence; format: in vivo, Zea mays
Outline: as §2

foxtail, giant [2] = assay: Test A preemergence; format: in vivo, Setaria faberii; conditions: 0 to 100 scale
Outline: as §2

pigweed [3] = assay: Test A preemergence; format: in vivo, Amaranthus retroflexus; conditions: 0 to 100 scale
Outline: as §2

foxtail, giant [4] = assay: Test C postemergence; format: in vivo, Setaria faberii; conditions: for Foxtail, Giant plant response rating: scale 0 to 100
Outline: as §1

blackgrass = assay: Test C postemergence; format: in vivo, Alopecurus myosuroides; conditions: for Blackgrass plant response rating: scale 0 to 100
Outline: as §1

soybean = assay: Test C postemergence; format: in vivo, Glycine max
Outline: as §1

johnsongrass = assay: Test C preemergence; format: in vivo, Sorghum halepense
Outline: as §1

ragweed = assay: Test C postemergence; format: in vivo, Ambrosia elation
Outline: as §1

pigweed [5] = assay: Test C preemergence; format: in vivo, Amaranthus retroflexus
Outline: as §1

galium = assay: Test C preemergence; format: in vivo, Galium aparine
Outline: as §1

[6] = postemergence, 125 g ai/ha, scale 0 to 100, 0 no effect, 100 complete control
[7] = postemergence, 62 g ai/ha, scale 0 to 100
[8] = Postemergence, 500 g ai/ha, visual rating after approx. 10 days, 0 to 100 scale (0 no effect, 100 complete control)
[9] = postemergence, 125 g ai/ha, about 10 days, visual rating on 0 to 100 scale (0 no effect, 100 complete control)
[10] = Preemergence, 500 g ai/ha, 0 no effect, 100 complete control
[11] = preemergence, 125 g ai/ha, visual injury, approx. 10 days
[12] = Preemergence, 16 g ai/ha, scale 0 to 100
[13] = preemergence, 31 g ai/ha, scale 0 to 100 (0 no effect, 100 complete control), 13 to 15 days
[14] = preemergence, 62 g ai/ha, 13 to 15 days, scale 0 to 100, 0 = no effect, 100 = complete control
[15] = preemergence, 125 g ai/ha, scale 0 to 100, 0 is no effect, 100 is complete control

With CCCNC(=O)c1cc(CC)n(Cc2ccnc(C(F)(F)F)c2)n1 [Compound 75] the “Plant response rating (scale of 0 to 100), Pigweed” value (pigweed [1]; Postemergence, 16 g ai/ha) was 40, the “Pigweed plant response rating” value (pigweed [1]; Postemergence, 31 g ai/ha) was 40 and the “Pigweed plant response rating” value (pigweed [1]; postemergence, 62 g ai/ha) was 60. For the same compound, the “Plant response rating, Pigweed” value (pigweed [1]; [6]) was 80, the “Plant response rating (scale of 0 to 100), Wheat” value (wheat; Postemergence, 16 g ai/ha) was 0 and the “Wheat plant response rating” value (wheat; [7]) was 5. For the same compound, the “Plant response rating, Wheat” value (wheat; [6]) was 5, the “Crabgrass, Large plant response rating” value (crabgrass, large; [8]) was 100 and the “Crabgrass, Large plant response rating” value (crabgrass, large; [9]) was 100. The “Plant response rating (scale of 0 to 100), Barnyardgrass” value (barnyardgrass; Postemergence, 16 g ai/ha) was 5, the “Barnyardgrass plant response rating” value (barnyardgrass; Postemergence, 31 g ai/ha) was 10 and the “Barnyardgrass plant response rating” value (barnyardgrass; postemergence, 62 g ai/ha) was 10. The “Plant response rating, Barnyardgrass” value (barnyardgrass; [6]) was 35, the “Corn plant response rating” value (corn; [8]) was 90 and the “Corn plant response rating” value (corn; [9]) was 80. For the same compound, the “Foxtail, Giant plant response rating” value (foxtail, giant [2]; [10]) was 100, the “Foxtail, Giant plant response rating” value (foxtail, giant [2]; [11]) was 100 and the “Pigweed plant response rating” value (pigweed [3]; [10]) was 100. For the same compound, the “Pigweed plant response rating” value (pigweed [3]; [11]) was 100, the “Plant response rating (scale of 0 to 100), Foxtail, Giant” value (foxtail, giant [4]; Postemergence, 16 g ai/ha) was 15 and the “Foxtail, Giant plant response rating” value (foxtail, giant [4]; Postemergence, 31 g ai/ha) was 20. The “Foxtail, Giant plant response rating” value (foxtail, giant [4]; postemergence, 62 g ai/ha) was 25, the “Plant response rating, Foxtail, Giant” value (foxtail, giant [4]; [6]) was 50 and the “Plant response rating (scale of 0 to 100), Blackgrass” value (blackgrass; Postemergence, 16 g ai/ha) was 5. The “Blackgrass plant response rating” value (blackgrass; Postemergence, 31 g ai/ha) was 5, the “Blackgrass plant response rating” value (blackgrass; postemergence, 62 g ai/ha) was 10 and the “Plant response rating, Blackgrass” value (blackgrass; [6]) was 15. The “Plant response rating (scale of 0 to 100), Soybean” value (soybean; Postemergence, 16 g ai/ha) was 40, the “Soybean plant response rating” value (soybean; [7]) was 75 and the “Plant response rating, Soybean” value (soybean; [6]) was 90. The “Plant response rating, Johnsongrass” value (johnsongrass; [12]) was 65, the “Johnsongrass plant response rating” value (johnsongrass; [13]) was 100 and the “Plant response rating, Johnsongrass” value (johnsongrass; [14]) was 100. For the same compound, the “Johnsongrass plant response rating” value (johnsongrass; [15]) was 100, the “Plant response rating (scale of 0 to 100), Ragweed” value (ragweed; Postemergence, 16 g ai/ha) was 40 and the “Ragweed plant response rating” value (ragweed; [7]) was 70. The “Plant response rating, Ragweed” value (ragweed; [6]) was 85, the “Plant response rating, Pigweed” value (pigweed [5]; [12]) was 85 and the “Pigweed plant response rating” value (pigweed [5]; [13]) was 100. The “Plant response rating, Pigweed” value (pigweed [5]; [14]) was 100, the “Pigweed plant response rating” value (pigweed [5]; [15]) was 100 and the “Plant response rating, Galium” value (galium; [12]) was 90. For the same compound, the “Galium plant response rating” value (galium; [13]) was 100, the “Plant response rating, Galium” value (galium; [14]) was 100 and the “Galium plant response rating” value (galium; [15]) was 100.
